Paper PMC5513037, “Examining the influence of specificity ligands and ATP-competitive ligands on the overall effectiveness of bivalent kinase inhibitors” (Proteome Science, 2017)
pIC50: −log10 of the molar value.

Columns and labels:
Assay in all cases: KAM-matrix competition in K562 lysate;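 for 0.001 uM KAM: median log10 fold change of treatment over DMSO control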;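 for 0.01 uM KAM: median log10 fold change of treatment over DMSO control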;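 for 0.1 uM KAM: median log10 fold change of treatment over DMSO control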;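 for 1 uM KAM: median log10 fold change of treatment over DMSO control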;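 for 10 uM KAM: median log10 fold change of treatment over DMSO control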
Assay type in all cases: binding
EPHB6 = target: T1, EPHB6 (Homo sapiens, UniProt O15197)
T1 construct: endogenous in cells; host or cells: K562
T1 sequence (O15197 32-1021): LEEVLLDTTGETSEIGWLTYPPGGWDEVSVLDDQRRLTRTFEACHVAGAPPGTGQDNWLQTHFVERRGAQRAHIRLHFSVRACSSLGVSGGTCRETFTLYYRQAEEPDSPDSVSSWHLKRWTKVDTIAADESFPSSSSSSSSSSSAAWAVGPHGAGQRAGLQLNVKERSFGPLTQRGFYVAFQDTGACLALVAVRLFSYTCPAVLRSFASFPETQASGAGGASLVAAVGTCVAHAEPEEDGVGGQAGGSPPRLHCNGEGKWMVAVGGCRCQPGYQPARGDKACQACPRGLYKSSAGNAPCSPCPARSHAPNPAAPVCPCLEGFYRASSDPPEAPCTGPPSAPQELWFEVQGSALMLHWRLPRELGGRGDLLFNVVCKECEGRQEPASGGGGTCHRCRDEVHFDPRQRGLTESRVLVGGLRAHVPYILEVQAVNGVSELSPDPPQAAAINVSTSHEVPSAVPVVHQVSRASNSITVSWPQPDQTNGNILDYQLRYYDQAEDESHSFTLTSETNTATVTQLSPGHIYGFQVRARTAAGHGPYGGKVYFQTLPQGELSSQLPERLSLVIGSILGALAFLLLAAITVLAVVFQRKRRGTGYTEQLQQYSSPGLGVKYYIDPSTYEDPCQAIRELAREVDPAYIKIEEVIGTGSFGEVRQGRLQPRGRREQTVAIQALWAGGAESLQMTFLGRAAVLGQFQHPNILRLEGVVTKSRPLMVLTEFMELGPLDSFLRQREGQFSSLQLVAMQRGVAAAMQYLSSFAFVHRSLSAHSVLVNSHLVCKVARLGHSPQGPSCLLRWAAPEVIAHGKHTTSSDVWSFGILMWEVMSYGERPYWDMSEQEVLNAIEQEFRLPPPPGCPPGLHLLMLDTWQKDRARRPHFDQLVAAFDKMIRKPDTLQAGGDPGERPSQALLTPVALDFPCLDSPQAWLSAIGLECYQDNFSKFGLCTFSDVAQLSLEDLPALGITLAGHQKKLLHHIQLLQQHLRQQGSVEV
Experimental: (§1) Supplement 12953_2017_125_MOESM1_ESM.zip/MS_Supp Info.xlsx, sheet "KAM" | column: 10 uM KAM; 1 uM KAM; 0.1 uM KAM; 0.01 uM KAM; 0.001 uM KAM; RB50

CDK2 = target: T2, CDK2 (Homo sapiens, UniProt P24941)
T2 construct: endogenous in cells; host or cells: K562
Experimental: as §1

WNK1 = target: T3, WNK1 (Homo sapiens, UniProt Q9H4A3);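 for 0.001 uM KAM: median log10 fold change of treatment over DMSO control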;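 for 0.01 uM KAM: median log10 fold change of treatment over DMSO control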;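 for 0.1 uM KAM: median log10 fold change of treatment over DMSO control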;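 for 1 uM KAM: median log10 fold change of treatment over DMSO control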;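 for 10 uM KAM: median log10 fold change of treatment over DMSO control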
T3 construct: endogenous in cells; host or cells: K562
Experimental: as §1

AURKA = target: T4, AURKA (Homo sapiens, UniProt O14965)
T4 construct: endogenous in cells; host or cells: K562
T4 sequence (O14965 1-403): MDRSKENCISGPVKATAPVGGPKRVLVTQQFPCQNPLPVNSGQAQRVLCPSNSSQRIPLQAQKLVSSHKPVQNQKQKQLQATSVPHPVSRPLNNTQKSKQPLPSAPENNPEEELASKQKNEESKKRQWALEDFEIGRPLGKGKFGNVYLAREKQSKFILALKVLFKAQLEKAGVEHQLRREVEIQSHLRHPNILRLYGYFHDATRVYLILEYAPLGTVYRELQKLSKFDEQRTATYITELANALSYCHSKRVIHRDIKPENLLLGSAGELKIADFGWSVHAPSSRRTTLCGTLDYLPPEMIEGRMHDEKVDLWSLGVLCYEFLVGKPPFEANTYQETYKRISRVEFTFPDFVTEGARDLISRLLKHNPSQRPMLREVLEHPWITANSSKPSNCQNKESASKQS
Experimental: as §1

EPHA2 = target: T5, EPHA2 (Homo sapiens, UniProt P29317);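 for 0.001 uM KAM: median log10 fold change of treatment over DMSO control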;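 for 0.01 uM KAM: median log10 fold change of treatment over DMSO control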;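 for 0.1 uM KAM: median log10 fold change of treatment over DMSO control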;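 for 1 uM KAM: median log10 fold change of treatment over DMSO control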;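 for 10 uM KAM: median log10 fold change of treatment over DMSO control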
T5 construct: endogenous in cells; host or cells: K562
Experimental: as §1

[1] = read-out: RB50 (the source's name)
[2] = KAM 0.001-10 uM, read-out: RB50 (the source's name)

T5 sequence (P29317 24-976): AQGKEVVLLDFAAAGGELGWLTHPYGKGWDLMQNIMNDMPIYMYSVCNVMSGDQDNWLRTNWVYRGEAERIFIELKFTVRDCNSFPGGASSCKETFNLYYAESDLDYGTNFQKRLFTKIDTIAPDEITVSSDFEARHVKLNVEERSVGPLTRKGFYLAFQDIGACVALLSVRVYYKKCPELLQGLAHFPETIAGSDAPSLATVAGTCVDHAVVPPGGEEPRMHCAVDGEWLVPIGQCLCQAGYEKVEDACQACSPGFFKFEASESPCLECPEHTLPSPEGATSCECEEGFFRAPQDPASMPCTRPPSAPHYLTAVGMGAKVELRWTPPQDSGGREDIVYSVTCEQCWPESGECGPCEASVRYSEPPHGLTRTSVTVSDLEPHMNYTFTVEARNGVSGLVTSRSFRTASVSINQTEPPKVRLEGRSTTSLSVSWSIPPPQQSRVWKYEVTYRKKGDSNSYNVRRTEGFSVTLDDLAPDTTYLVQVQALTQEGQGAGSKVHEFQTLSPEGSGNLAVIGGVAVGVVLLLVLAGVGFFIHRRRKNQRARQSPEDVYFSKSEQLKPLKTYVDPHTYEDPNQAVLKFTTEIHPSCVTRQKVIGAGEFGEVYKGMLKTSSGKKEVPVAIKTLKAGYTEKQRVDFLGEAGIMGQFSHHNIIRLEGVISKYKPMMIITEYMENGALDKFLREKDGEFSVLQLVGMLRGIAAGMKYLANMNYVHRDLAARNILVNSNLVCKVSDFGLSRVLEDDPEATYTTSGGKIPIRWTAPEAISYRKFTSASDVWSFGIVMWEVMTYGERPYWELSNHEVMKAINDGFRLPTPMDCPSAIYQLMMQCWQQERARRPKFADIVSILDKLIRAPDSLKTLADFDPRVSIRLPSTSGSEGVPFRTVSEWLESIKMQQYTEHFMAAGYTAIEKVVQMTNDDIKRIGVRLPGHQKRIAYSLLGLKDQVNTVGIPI
T3 sequence (Q9H4A3 whole entry): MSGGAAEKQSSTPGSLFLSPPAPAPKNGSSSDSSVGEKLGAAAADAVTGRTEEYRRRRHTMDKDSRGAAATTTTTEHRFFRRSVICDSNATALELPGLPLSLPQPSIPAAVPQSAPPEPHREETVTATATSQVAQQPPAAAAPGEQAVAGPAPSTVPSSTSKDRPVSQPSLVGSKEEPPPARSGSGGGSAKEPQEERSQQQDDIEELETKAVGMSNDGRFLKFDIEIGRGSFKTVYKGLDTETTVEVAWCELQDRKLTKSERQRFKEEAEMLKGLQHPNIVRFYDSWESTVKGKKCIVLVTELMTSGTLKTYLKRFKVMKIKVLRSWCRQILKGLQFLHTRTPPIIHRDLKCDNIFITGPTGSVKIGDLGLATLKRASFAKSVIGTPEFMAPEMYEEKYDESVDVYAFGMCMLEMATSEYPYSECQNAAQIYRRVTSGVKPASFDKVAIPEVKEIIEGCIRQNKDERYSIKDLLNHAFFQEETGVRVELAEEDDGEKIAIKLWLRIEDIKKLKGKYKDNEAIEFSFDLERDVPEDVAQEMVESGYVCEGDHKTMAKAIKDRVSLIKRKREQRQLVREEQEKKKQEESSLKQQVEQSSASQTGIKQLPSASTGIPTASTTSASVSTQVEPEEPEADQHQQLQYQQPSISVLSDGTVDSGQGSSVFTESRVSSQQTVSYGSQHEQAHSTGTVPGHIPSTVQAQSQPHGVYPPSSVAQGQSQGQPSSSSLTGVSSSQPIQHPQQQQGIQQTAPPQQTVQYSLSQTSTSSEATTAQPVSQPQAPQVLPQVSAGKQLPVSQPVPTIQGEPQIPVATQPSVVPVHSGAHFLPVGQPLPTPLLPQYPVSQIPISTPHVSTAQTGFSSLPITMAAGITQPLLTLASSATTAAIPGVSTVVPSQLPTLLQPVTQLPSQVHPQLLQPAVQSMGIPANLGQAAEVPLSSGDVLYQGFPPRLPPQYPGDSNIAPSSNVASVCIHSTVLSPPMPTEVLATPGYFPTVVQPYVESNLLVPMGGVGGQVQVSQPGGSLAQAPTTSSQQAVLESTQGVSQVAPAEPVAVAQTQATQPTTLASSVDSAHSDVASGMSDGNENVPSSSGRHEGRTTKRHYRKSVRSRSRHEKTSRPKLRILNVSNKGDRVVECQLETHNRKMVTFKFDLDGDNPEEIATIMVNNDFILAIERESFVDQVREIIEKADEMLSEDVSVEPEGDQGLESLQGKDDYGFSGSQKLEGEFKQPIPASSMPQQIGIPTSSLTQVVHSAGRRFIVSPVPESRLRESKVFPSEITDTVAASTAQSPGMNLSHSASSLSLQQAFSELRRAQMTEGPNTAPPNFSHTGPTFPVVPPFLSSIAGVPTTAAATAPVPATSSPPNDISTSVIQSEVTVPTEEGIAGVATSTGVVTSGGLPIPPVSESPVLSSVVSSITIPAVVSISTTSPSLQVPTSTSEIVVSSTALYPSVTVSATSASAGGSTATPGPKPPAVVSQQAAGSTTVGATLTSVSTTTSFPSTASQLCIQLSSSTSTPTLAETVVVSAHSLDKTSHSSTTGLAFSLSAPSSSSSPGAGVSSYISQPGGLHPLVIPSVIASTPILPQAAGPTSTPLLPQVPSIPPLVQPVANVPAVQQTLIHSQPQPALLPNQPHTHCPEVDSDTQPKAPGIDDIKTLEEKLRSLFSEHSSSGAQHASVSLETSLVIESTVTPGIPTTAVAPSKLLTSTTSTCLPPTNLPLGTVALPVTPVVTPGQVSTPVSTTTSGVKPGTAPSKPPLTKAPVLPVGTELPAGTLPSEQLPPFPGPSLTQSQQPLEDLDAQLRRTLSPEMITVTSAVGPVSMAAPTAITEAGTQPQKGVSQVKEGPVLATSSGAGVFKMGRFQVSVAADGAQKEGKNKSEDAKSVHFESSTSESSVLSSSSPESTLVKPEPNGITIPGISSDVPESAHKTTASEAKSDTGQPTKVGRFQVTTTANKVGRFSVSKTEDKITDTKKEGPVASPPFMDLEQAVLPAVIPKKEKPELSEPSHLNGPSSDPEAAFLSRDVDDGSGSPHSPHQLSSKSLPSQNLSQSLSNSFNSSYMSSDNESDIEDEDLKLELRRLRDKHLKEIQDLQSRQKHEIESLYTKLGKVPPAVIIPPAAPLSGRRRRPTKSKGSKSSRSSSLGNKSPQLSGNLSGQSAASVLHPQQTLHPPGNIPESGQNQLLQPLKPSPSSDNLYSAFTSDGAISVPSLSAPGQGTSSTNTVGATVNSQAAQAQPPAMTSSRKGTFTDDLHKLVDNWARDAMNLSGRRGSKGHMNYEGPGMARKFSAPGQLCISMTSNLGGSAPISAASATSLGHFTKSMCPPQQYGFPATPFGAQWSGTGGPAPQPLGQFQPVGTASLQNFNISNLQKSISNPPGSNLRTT

N#CCc1ccc(Nc2nc(NCCCN)cc(Nc3cc(C4CC4)[nH]n3)n2)cc1 [KAM]
median Log10 fold change (EPHB6; 0.001 uM KAM): -0.01655 | median Log10 fold change (EPHB6; 0.01 uM KAM): -0.02112 | median Log10 fold change (EPHB6; 0.1 uM KAM): -0.1129 | median Log10 fold change (EPHB6; 1 uM KAM): -0.2258 | median Log10 fold change (EPHB6; 10 uM KAM): -0.3985 | pIC50 (EPHB6; [1]): 5.60 | median Log10 fold change (CDK2; 0.001 uM KAM): -0.01597 | median Log10 fold change (CDK2; 0.01 uM KAM): -0.009383 | median Log10 fold change (CDK2; 0.1 uM KAM): -0.2687 | median Log10 fold change (CDK2; 1 uM KAM): -0.5288 | median Log10 fold change (CDK2; 10 uM KAM): -0.6805 | pIC50 (CDK2; [1]): 6.75 | pIC50 (WNK1; [2]): < 5.00 | 0.001 uM KAM (WNK1; relative to 0 uM KAM = 0): -0.03013 | 0.01 uM KAM (WNK1; relative to 0 uM KAM = 0): -0.03259 | 0.1 uM KAM (WNK1; relative to 0 uM KAM = 0): -0.03066 | 1 uM KAM (WNK1; relative to 0 uM KAM = 0): 0.00603 | 10 uM KAM (WNK1; relative to 0 uM KAM = 0): -0.05865 | median Log10 fold change (AURKA; 0.001 uM KAM): 0.0112 | median Log10 fold change (AURKA; 0.01 uM KAM): -0.01229 | median Log10 fold change (AURKA; 0.1 uM KAM): -0.2365 | median Log10 fold change (AURKA; 1 uM KAM): -0.473 | median Log10 fold change (AURKA; 10 uM KAM): -0.552 | pIC50 (AURKA; [1]): 6.59 | pIC50 (EPHA2; [2]): < 5.00 | 0.001 uM KAM (EPHA2; relative to 0 uM KAM = 0): -0.04778 | 0.01 uM KAM (EPHA2; relative to 0 uM KAM = 0): 0.0608 | 0.1 uM KAM (EPHA2; relative to 0 uM KAM = 0): 0.1233 | 1 uM KAM (EPHA2; relative to 0 uM KAM = 0): 0.3139 | 10 uM KAM (EPHA2; relative to 0 uM KAM = 0): 0.0956
